# Assay results as given in patent US20160009693A1, “HERBICIDAL COMPOUNDS” (SYNGENTA LIMITED, priority 2013, published 2016).
# How the values were obtained:
# Assay type in all cases: in vivo
# Settings in all cases: applied at 1000 g/h, evaluated after 13 days
# [1] = tested on: Alopecurus myosuroides (ALOMY); assay: Herbicidal glasshouse test, post-emergence, ALOMY
# [2] = tested on: Echinochloa crus-galli (ECHCG); assay: Herbicidal glasshouse test, post-emergence, ECHCG
# Outline: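 Echinochloa crus-galli (ECHCG) seeds were sown in standard soil in pots and grown for 8 days in a glasshouse at 24/16° C. day/night, 14 hours light and 65% humidity. The young plants were then sprayed post-emergence with the active ingredient in acetone / water (50:50) containing 0.5% Tween 20. Damage was scored after 13 days.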
# [3] = tested on: Ipomoea hederacea (IPOHE); assay: Herbicidal glasshouse test, pre-emergence, IPOHE
# [4] = tested on: Echinochloa crus-galli (ECHCG); assay: Herbicidal glasshouse test, pre-emergence, ECHCG
# Outline: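 Echinochloa crus-galli seeds were sown in standard soil in pots and grown for one day in a glasshouse at 24/16° C. day/night, 14 hours light and 65% humidity. Pre-emergence spraying used an aqueous solution of the active ingredient in acetone/water (50:50) with 0.5% Tween 20. Damage was scored after 13 days on a five point scale.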
# [5] = tested on: Amaranthus retoflexus (AMARE); assay: Herbicidal glasshouse test, pre-emergence, AMARE
# Outline: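 Amaranthus retoflexus seeds were sown in pots of standard soil and kept one day in a glasshouse at 24/16° C. (day/night), 14 hours light and 65% humidity. They were then sprayed pre-emergence with the active ingredient in acetone/water (50:50) containing 0.5% Tween 20. Plants grew under the same conditions, watered twice daily, and percentage damage was scored after 13 days.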
# Setaria faberi (SETFA) [6] = assay: Herbicidal glasshouse test, pre-emergence, SETFA
# [7] = tested on: Amaranthus retoflexus (AMARE); assay: Herbicidal glasshouse test, post-emergence, AMARE
# Outline: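 Amaranthus retoflexus (AMARE) seeds were sown in pots of standard soil and grown in a glasshouse at 24/16° C. day/night, 14 hours light and 65% humidity for 8 days. The plants were then sprayed post-emergence with an aqueous solution of the active ingredient in acetone/water (50:50) with 0.5% Tween 20. Damage was scored after 13 days.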
# [8] = tested on: Ipomoea hederacea (IPOHE); assay: Herbicidal glasshouse test, post-emergence, IPOHE
# Solanum nigrum (SOLNI) [9] = assay: Herbicidal glasshouse test, pre-emergence, SOLNI
# Outline: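 Seeds of Solanum nigrum were sown in pots of standard soil and kept one day in a glasshouse at 24/16° C. day/night, 14 hours light and 65% humidity. For the pre-emergence treatment they were then sprayed with an aqueous solution of the active ingredient formulated in acetone/water (50:50) containing 0.5% Tween 20. Plant damage was rated after 13 days.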
# Solanum nigrum (SOLNI) [10] = assay: Herbicidal glasshouse test, post-emergence, SOLNI
# [11] = tested on: Alopecurus myosuroides (ALOMY); assay: Herbicidal glasshouse test, pre-emergence, ALOMY
# Setaria faberi (SETFA) [12] = assay: Herbicidal glasshouse test, post-emergence, SETFA
# Outline: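 Setaria faberi seeds were sown in standard soil in pots and grown for 8 days in a glasshouse at 24/16° C. day/night, 14 hours light and 65% humidity. The seedlings were then sprayed post-emergence with the active ingredient in acetone/water (50:50) containing 0.5% Tween 20. Afterwards they were kept under the same conditions, watered twice daily, and scored for percentage damage on a five point scale.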
SMILES,"POST Application ALOMY, percentage damage (five point scale) [1]","POST Application ECHCG, percentage damage (five point scale) [2]","PRE Application IPOHE, percentage damage (five point scale) [3]","PRE Application ECHCG, percentage damage (five point scale) [4]","PRE Application AMARE, percentage damage (five point scale) [5]","PRE Application SETFA, percentage damage (five point scale) (Setaria faberi (SETFA) [6])","POST Application AMARE, percentage damage (five point scale) [7]","POST Application IPOHE, percentage damage (five point scale) [8]","PRE Application SOLNI, percentage damage (five point scale) (Solanum nigrum (SOLNI) [9])","POST Application SOLNI, percentage damage (five point scale) (Solanum nigrum (SOLNI) [10])","PRE Application ALOMY, percentage damage (five point scale) [11]","POST Application SETFA, percentage damage (five point scale) (Setaria faberi (SETFA) [12])"
Cn1nnnc1NC(=O)c1nn(C)c(=O)n(Cc2ccc(C#N)cc2)c1=O [Compound 1.050],5 (5=80-100%),5 (5=80-100%),5 (5=80-100%),5 (5=80-100%),5 (5=80-100%),2 (2=20-39%),5 (5=80-100%),5 (5=80-100%),5 (5=80-100%),5 (5=80-100%),5 (5=80-100%),1 (1=0-19%)
Cc1ccc(Cn2c(=O)c(C(=O)Nc3nnnn3C)nn(C)c2=O)cc1 [Compound 1.051],5 (5=80-100%),5 (5=80-100%),5 (5=80-100%),5 (5=80-100%),5 (5=80-100%),1 (1=0-19%),5 (5=80-100%),5 (5=80-100%),5 (5=80-100%),5 (5=80-100%),5 (5=80-100%),2 (2=20-39%)
Cc1cccc(Cn2c(=O)c(C(=O)Nc3nnnn3C)nn(C)c2=O)c1 [Compound 1.052],5 (5=80-100%),5 (5=80-100%),2 (2=20-39%),5 (5=80-100%),5 (5=80-100%),1 (1=0-19%),5 (5=80-100%),5 (5=80-100%),5 (5=80-100%),5 (5=80-100%),5 (5=80-100%),1 (1=0-19%)
Cc1cccc(-n2c(=O)c(C(=O)Nc3nnnn3C)nn(C)c2=O)c1 [Compound 1.053],5 (5=80-100%),4 (4=60-79%),5 (5=80-100%),5 (5=80-100%),5 (5=80-100%),3 (3=40-59%),5 (5=80-100%),5 (5=80-100%),5 (5=80-100%),5 (5=80-100%),5 (5=80-100%),3 (3=40-59%)
Cn1nnnc1NC(=O)c1nn(C)c(=O)n(Cc2cccc(C#N)c2)c1=O [Compound 1.054],5 (5=80-100%),5 (5=80-100%),5 (5=80-100%),5 (5=80-100%),5 (5=80-100%),4 (4=60-79%),5 (5=80-100%),5 (5=80-100%),5 (5=80-100%),5 (5=80-100%),5 (5=80-100%),4 (4=60-79%)
Cn1nnnc1NC(=O)c1nn(C)c(=O)n(Cc2ccc(F)cc2F)c1=O [Compound 1.055],5 (5=80-100%),4 (4=60-79%),5 (5=80-100%),5 (5=80-100%),5 (5=80-100%),1 (1=0-19%),5 (5=80-100%),5 (5=80-100%),5 (5=80-100%),5 (5=80-100%),5 (5=80-100%),1 (1=0-19%)
Cn1nnnc1NC(=O)c1nn(C)c(=O)n(Cc2c(F)cc(F)cc2F)c1=O [Compound 1.056],5 (5=80-100%),4 (4=60-79%),5 (5=80-100%),5 (5=80-100%),5 (5=80-100%),1 (1=0-19%),5 (5=80-100%),5 (5=80-100%),5 (5=80-100%),5 (5=80-100%),5 (5=80-100%),4 (4=60-79%)
